Source: patent US20230146455A1, “TREATMENT OF INFLAMMATORY DISEASES WITH PEPTIDES AND PHARMACEUTICAL COMPOSITIONS” (Yuyu Pharma, Inc., priority 2020, published 2023)
Values joined by “and” are separate entries in the source; they are usually repeats but may differ in a detail not shown here. Equal entries are not always repeated. Where a SMILES comes first, the peptide text is derived from it. [ ]: non-standard residue; d: D form. Hyp = O=C(O)[C@@H]1C[C@@H](O)CN1

Key:
[1] = test system: CCL4/MIP-1 beta; test: Example 8 main study Luminex, LPS hPBMCs: CCL4/MIP-1 beta; format: cell-based, human
Experimental: (§1) Human PBMCs were pretreated with YY-101, YDE-011, YDE-043 or reference compound; Xiidra® at various concentration (ranging from […] to 500 nM) for 2 h before stimulation. An equal volume of 0.5% DMSO was used as a vehicle control. Then, the cells were treated with LPS at 5 ug/ml, which was selected based on the pilot study. The supernatants from treated cells were harvested at 24 h and placed in a 96 well for Luminex cytokine & chemokine profiling using a Luminex 200 multiplex assay (Luminex; R&D system, USA).
(§2) The main study arm with triplicate wells per group in a 24-well plate: • 1. Blank • 2. PBMC: 0.5% DMSO • 3. PBMC+LPS (5 ug/ml) • 4. PBMC+YY-101 500 nM • 5. PBMC+YY-101 50 nM • 6. PBMC+YY-101 5 nM • 7. PBMC+YY-101 0.5 nM • 8. PBMC+LPS (5 ug/ml)+Xiidra® 500 nM • 9. PBMC+LPS (5 ug/ml)+Xiidra® 50 nM • 10. PBMC+LPS (5 ug/ml)+Xiidra® 5 nM • 11. PBMC+LPS (5 ug/ml)+Xiidra® 0.5 nM • 12. PBMC+LPS (5 ug/ml)+Xiidra® 0.05 nM • 13. PBMC+LPS (5 ug/ml)+Xiidra® 0.005 nM • 14. PBMC+LPS (5 ug/ml)+YY-101 500 nM • 15. PBMC+LPS (5 ug/ml)+YY-101 50 nM • 16. PBMC+LPS (5 ug/ml)+YY-101 5 nM • 17. PBMC+LPS (5 ug/ml)+YY-101 0.5 nM • 18. PBMC+LPS (5 ug/ml)+YY-101 0.05 nM • 19. PBMC+LPS (5 ug/ml)+YY-101 0.005 nM • 20. PBMC+LPS (5 ug/ml)+YDE-011 500 nM • 21. PBMC+LPS (5 ug/ml)+YDE-011 50 nM • 22. PBMC+LPS (5 ug/ml)+YDE-011 5 nM • 23. PBMC+LPS (5 ug/ml)+YDE-011 0.5 nM • 24. PBMC+LPS (5 ug/ml)+YDE-011 0.05 nM • 25. PBMC+LPS (5 ug/ml)+YDE-011 0.005 nM • 26. PBMC+LPS (5 ug/ml)+YDE-043 500 nM • 27. PBMC+LPS (5 ug/ml)+YDE-043 50 nM • 28. PBMC+LPS (5 ug/ml)+YDE-043 5 nM • 29. PBMC+LPS (5 ug/ml)+YDE-043 0.5 nM • 30. PBMC+LPS (5 ug/ml)+YDE-043 0.05 nM • 31. PBMC+LPS (5 ug/ml)+YDE-043 0.005 nM
(§3) Multiplex assay was used to measure 30 cytokines and chemokines. The 1:200 diluted cell supernatant and serial dilution of the standard were dispensed into a 96 well plate at 50 ul/well. Then, the pre-mixed cocktail of antibody-coated magnetic beads was dispensed at 50 ul/well and incubated at room temperature for 2 h in a horizontal orbital microplate shaker at 800±500 rpm. The beads were washed using a magnetic device to prevent loss. The biotin-antibody was dispensed in 50 ul of each well and incubated at room temperature for 1 h in a shaker at 800±500 rpm. After washing, streptavidin-PE was added at 50 ul/well and incubated at room temperature for 30 min in a shaker under the same conditions. Finally, after washing, wash buffer (100 ul/well) was added to the plate and incubated in a shaker for 2 min. The Luminex™ 200 setting were set according to the manufacturer's protocol. The data was calculated with a standard five-parameter logistic nonlinear regression analysis of the data (xPonent software 4.2, USA). Results were presented as concentration (ng/ml or pg/ml).

[2] = test system: MMP-9; test: Example 8 main study Luminex, LPS hPBMCs: MMP-9; format: cell-based, human; conditions: PBMC + LPS(5 ug/ml)
Experimental: as §1, §2, §3

[3] = PBMC + LPS(5 ug/ml) + test article 0.005 nM, Mean
[4] = PBMC + LPS(5 ug/ml) + test article 0.005 nM, single replicates
[5] = PBMC + LPS(5 ug/ml) + test article 0.05 nM, Mean
[6] = PBMC + LPS(5 ug/ml) + test article 0.05 nM, single replicates
[7] = PBMC + LPS(5 ug/ml) + test article 0.5 nM, Mean
[8] = PBMC + LPS(5 ug/ml) + test article 0.5 nM, single replicates
[9] = PBMC + LPS(5 ug/ml) + test article 5 nM, Mean
[10] = PBMC + LPS(5 ug/ml) + test article 5 nM, single replicates
[11] = PBMC + LPS(5 ug/ml) + test article 50 nM, Mean
[12] = PBMC + LPS(5 ug/ml) + test article 50 nM, single replicates
[13] = PBMC + LPS(5 ug/ml) + test article 500 nM, Mean
[14] = PBMC + LPS(5 ug/ml) + test article 500 nM, single replicates
[15] = test article 0.005 nM, single replicates
[16] = test article 0.05 nM, single replicates
[17] = test article 0.5 nM, single replicates
[18] = test article 5 nM, single replicates
[19] = test article 50 nM, single replicates
[20] = test article 500 nM, single replicates

CC(C)C[C@H](NC(=O)[C@H](CCC(N)=O)NC(=O)CNC(=O)[C@@H]1C[C@@H](O)CN1)C(=O)NCC(=O)O [YDE-043] (H-[Hyp]GQLG-OH; N-terminus and C-terminus assumed)
CCL4/MIP-1 beta Concentration [1, 3]: 24223.5 pg/mL | CCL4/MIP-1 beta MFI [1, 3]: 13.7 | CCL4/MIP-1 beta Concentration [1, 4]: 22956.0 pg/mL and 30013.2 pg/mL and 19701.2 pg/mL | CCL4/MIP-1 beta MFI [1, 4]: 13.0 and 16.0 and 12.0 | CCL4/MIP-1 beta Concentration [1, 5]: 19701.2 pg/mL | CCL4/MIP-1 beta MFI [1, 5]: 12.0 | CCL4/MIP-1 beta Concentration [1, 6]: 19701.2 pg/mL | CCL4/MIP-1 beta MFI [1, 6]: 12.0 | CCL4/MIP-1 beta Concentration [1, 7]: 21871.1 pg/mL | CCL4/MIP-1 beta MFI [1, 7]: 12.7 | CCL4/MIP-1 beta Concentration [1, 8]: 22956.0 pg/ml (2×) and 19701.2 pg/ml | CCL4/MIP-1 beta MFI [1, 8]: 13.0 (2×) and 12.0 | CCL4/MIP-1 beta Concentration [1, 9]: 20786.2 pg/mL | CCL4/MIP-1 beta MFI [1, 9]: 12.3 | CCL4/MIP-1 beta Concentration [1, 10]: 19701.2 pg/ml (2×) and 22956.0 pg/ml | CCL4/MIP-1 beta MFI [1, 10]: 12.0 (2×) and 13.0 | CCL4/MIP-1 beta Concentration [1, 11]: 21205.1 pg/mL | CCL4/MIP-1 beta MFI [1, 11]: 12.5 | CCL4/MIP-1 beta Concentration [1, 12]: 22956.0 pg/ml (2×) and 17703.4 pg/ml | CCL4/MIP-1 beta MFI [1, 12]: 13.0 (2×) and 11.5 | CCL4/MIP-1 beta Concentration [1, 13]: 22762.3 pg/mL | CCL4/MIP-1 beta MFI [1, 13]: 13.0 | CCL4/MIP-1 beta Concentration [1, 14]: 25629.7 pg/mL and 22956.0 pg/mL and 19701.2 pg/mL | CCL4/MIP-1 beta MFI [1, 14]: 14.0 and 13.0 and 12.0 | LPS-induced CCL-4 (in words) ([1]; at as low as 5 μM, LPS 5 ug/mL 24 hrs): significantly reduced | Concentration (pg/ml), MMP-9 ([2]; test article 0.005 nM, Mean): 5247.2 pg/mL | MFI (Bead name: MMP-9) ([2]; test article 0.005 nM, Mean): 33.0 | Concentration (pg/ml), MMP-9 [2, 15]: 3994.2 pg/mL and 5555.3 pg/mL and 6192.0 pg/mL | MFI (Bead name: MMP-9) [2, 15]: 29.0 and 34.0 and 36.0 | Concentration (pg/ml), MMP-9 ([2]; test article 0.05 nM, Mean): 3943.4 pg/mL | MFI (Bead name: MMP-9) ([2]; test article 0.05 nM, Mean): 28.8 | Concentration (pg/ml), MMP-9 [2, 16]: 3994.2 pg/mL and 4148.1 pg/mL and 3688.0 pg/mL | MFI (Bead name: MMP-9) [2, 16]: 29.0 and 29.5 and 28.0 | Concentration (pg/ml), MMP-9 ([2]; test article 0.5 nM, Mean): 3536.4 pg/mL | MFI (Bead name: MMP-9) ([2]; test article 0.5 nM, Mean): 27.5 | Concentration (pg/ml), MMP-9 [2, 17]: 3688.0 pg/ml (2×) and 3233.2 pg/ml | MFI (Bead name: MMP-9) [2, 17]: 28.0 (2×) and 26.5 | Concentration (pg/ml), MMP-9 ([2]; test article 5 nM, Mean): 3842.1 pg/mL | MFI (Bead name: MMP-9) ([2]; test article 5 nM, Mean): 28.5 | Concentration (pg/ml), MMP-9 [2, 18]: 4302.5 pg/mL and 3688.0 pg/mL and 3535.8 pg/mL | MFI (Bead name: MMP-9) [2, 18]: 30.0 and 28.0 and 27.5 | Concentration (pg/ml), MMP-9 ([2]; test article 50 nM, Mean): 3892.8 pg/mL | MFI (Bead name: MMP-9) ([2]; test article 50 nM, Mean): 28.7 | Concentration (pg/ml), MMP-9 [2, 19]: 3688.0 pg/ml (2×) and 4302.5 pg/ml | MFI (Bead name: MMP-9) [2, 19]: 28.0 (2×) and 30.0 | Concentration (pg/ml), MMP-9 ([2]; test article 500 nM, Mean): 4100.4 pg/mL | MFI (Bead name: MMP-9) ([2]; test article 500 nM, Mean): 29.3 | Concentration (pg/ml), MMP-9 [2, 20]: 3688.0 pg/ml (2×) and 4925.2 pg/ml | MFI (Bead name: MMP-9) [2, 20]: 28.0 (2×) and 32.0
